# Where two headings read alike, the source gives them in different places.
# Test system: HBMEC monolayer
# [1] = matrix ASFE extract 24 µg/mL, 2 h incubation, n.d = not detected in lower compartment
# [2] = matrix ASFE extract 24 µg/mL, 4 h incubation, n.d = not detected in lower compartment
structure (smiles),measurement,setting,value
C=CC(C)(O)CCC=C(C)CCC=C(C)C (mixture of isomers) [Nerolidol],Te % (SEM) 2 h,human,30.1 (2.5) %
same,Te % (SEM) 4 h,human,59.8 (2.4) %
"C[C@H]1[C@H](C)CC[C@]2(CO)CC[C@]3(C)C(=CC[C@@H]4[C@@]5(C)CC[C@H](O)C(C)(C)[C@@H]5CC[C@]43C)[C@H]12 (single isomer, unassigned) [Uvaol Isomer I, Uvaol]",Te % (SEM) 2 h,human,3.3 (0.1) %
same,Te % (SEM) 4 h,human,38.8 (3.2) %
"C[C@H]1[C@H](C)CC[C@]2(CO)CC[C@]3(C)C(=CC[C@@H]4[C@@]5(C)CC[C@H](O)C(C)(C)[C@@H]5CC[C@]43C)[C@H]12 (single isomer, unassigned) [Uvaol Isomer II, Uvaol]",Te % (SEM) 2 h,human,17.7 (1.0) %
same,Te % (SEM) 4 h,human,38.3 (0.7) %
CC1=CCC2C(C1)C2(C)C (stereo not drawn) [3-Carene],Te % (SEM) 4 h,"human, 4 h, 15 µg/mL",20.3 (0.9) %
C/C=C/C(=O)C1=C(C)CC(O)CC1(C)C (stereo not drawn) [3-hydroxy-β-damascone],Te % (SEM) 2 h,,84.5 (3.2) %
C[C@@H]1CC[C@@H]2[C@@H]1[C@H]1[C@@H](CC[C@@]2(C)O)C1(C)C [(-)-Globulol],Te % (SEM) 2 h,,44.1 (3.6) %
CC1=CCCC2(C)CCC3C(C)(C)CC132 (stereo not drawn) [(−)-α-Panasinsen],Te % (SEM) 2 h,,19.8 (0.2) %
CC1(C)C2CCC1(C)C(O)C2 (stereo not drawn) [Borneol],Te % (SEM) 2 h,"human, 2 h, 40 µg/mL",8.5 (0.3) %
same,Te % (SEM) 4 h,"human, 4 h, 40 µg/mL",35.2 (0.1) %
O=C(/C=C/c1ccc(O)c(O)c1)c1ccc(O)cc1O [Butein],Te % (SEM) 2 h,[1],27.5 (2.0) %
same,Te % (SEM) 4 h,[2],36.3 (2.6) %
O=C(O)/C=C/c1ccc(O)c(O)c1 [Caffeic acid],Te % (SEM) 2 h,"human, 2 h, 24 µg/mL",55.4 (3.7) %
same,Te % (SEM) 2 h,"human, 2 h, 30 µg/mL",34.8 (1.2) %
same,Te % (SEM) 4 h,"human, 4 h, 24 µg/mL",68.3(0.3) %
same,Te % (SEM) 4 h,"human, 4 h, 30 µg/mL",50.1 (3.4) %
O=C(/C=C/c1ccc(O)c(O)c1)OC1[C@H](O)CC(O)(C(=O)O)C[C@H]1O (stereo partly drawn) [Caffeoylquinic acid],Te % (SEM) 2 h,,15.7 (0.4) %
same,Te % (SEM) 4 h,,74.8 (2.9) %
CC(C)[C@H](C)CC[C@@H](C)[C@H]1CC[C@H]2[C@@H]3CC=C4C[C@@H](O)CC[C@]4(C)[C@H]3CC[C@]12C [Campesterol],Te % (SEM) 2 h,human,68.7 (2.2) %
C=C1CC[C@H]2O[C@]2(C)CC[C@@H]2[C@@H]1CC2(C)C [Caryophyllene oxide],Te % (SEM) 2 h,,67.7 (0.9) %
C[C@H]1[C@H](C)CC[C@]2(C(=O)O)CC[C@]3(C)C(=CC[C@@H]4[C@@]5(C)C[C@@H](O)[C@H](O)C(C)(C)[C@@H]5CC[C@]43C)[C@H]12 [Corosolic acid],Te % (SEM) 2 h,[1],33.4 (1.9) %
same,Te % (SEM) 4 h,[2],39.6 (1.9) %
O=C(/C=C/c1ccc(O)cc1)O[C@@H](C(=O)O)[C@@H](O)C(=O)O [Coutaric acid],Detection / transport to lower compartment (brain side) of HBMEC-BBB model,ASFE extract,not detected in the lower compartment
CC1(C)CCCC2(C)OC(=O)C=C12 (stereo not drawn) [Dihydroactinidiolide],Te % (SEM) 2 h,human,42.2 (3.5) %
same,Te % (SEM) 4 h,human,51.8 (3.0) %
C=C[C@]1(C)CC[C@@H](C(C)(C)O)C[C@H]1C(=C)C [Elemol],Te % (SEM) 2 h,,24.6 (0.5) %
same,Te % (SEM) 4 h,,25.4 (1.6) %
CCOC(=O)/C=C/c1ccc(O)c(O)c1 [Ethyl caffeate],Te % (SEM) 2 h,,33.4 (2.4) %
same,Te % (SEM) 4 h,,35.7 (0.3) %
O=C(O)c1cc(O)c(O)c(O)c1 [Gallic acid],Te % (SEM) 2 h,"human, 2 h, 30 µg/mL",33.0 (1.9)/39.9 (1.4) %
same,Te % (SEM) 4 h,"human, 4 h, 30 µg/mL",62.9 (0.3)/67.9(1.3) %
same,Te % (SEM) 2 h,[1],33.0 (1.9)/39.9 (1.4) %
same,Te % (SEM) 4 h,[2],62.9 (0.3)/67.9(1.3) %
CC(CC(=O)CC(C)C1CC(O)C2(C)C3=C(C(=O)CC12C)C1(C)CCC(O)C(C)(CO)C1CC3)C(=O)O (stereo not drawn) [Ganolucidic acid C],Te % (SEM) 2 h,[1],11.7 (0.7) %
same,Te % (SEM) 4 h,[2],15.6 (0.3) %
CC(C)=CCC/C(C)=C/CC/C(C)=C/CC/C(C)=C/CO [Geranylgeraniol],Te % (SEM) 2 h,,30.2 (1.1) %
same,Te % (SEM) 4 h,,56.6 (3.1) %
C=C1/C=C/[C@H](C(C)C)CC/C(C)=C/CC1 [Germacrene D],Te % (SEM) 2 h,,3.2 (0.2) %
same,Te % (SEM) 4 h,,6.6 (0.4) %
COc1ccc([C@@H]2CC(=O)c3c(O)cc(O)cc3O2)cc1O [Hesperetin],Te % (SEM) 2 h,"human, 2 h, 24 µg/mL",65.5 (4.8) %
same,Te % (SEM) 4 h,"human, 4 h, 24 µg/mL",67.2 (3.6) %
CC1(C)C[C@H](O)C[C@]2(C)OC(=O)C=C12 [Isololiolide],Te % (SEM) 2 h,,33.0 (2.6) %
same,Te % (SEM) 4 h,,61.4 (4.3) %
C=CC(C)(O)CCCC(C)CCCC(C)CCCC(C)C (stereo not drawn) [Isophytol],Te % (SEM) 2 h,,15.6 (1.0) %
same,Te % (SEM) 4 h,,58.0 (1.7) %
O=c1c(O)c(-c2ccc(O)cc2)oc2cc(O)cc(O)c12 [Kaempferol],Te % (SEM) 2 h,"human, 2 h, 24 µg/mL",31.5 (1.1) %
same,Te % (SEM) 4 h,"human, 4 h, 24 µg/mL",36.5 (2.2) %
CC1=CC[C@@H](C(C)(C)O)CC1 [L-α-Terpineol],Te % (SEM) 2 h,,17.6 (1.3) %
same,Te % (SEM) 4 h,,59.3 (0.4) %
C=C(C)C1CCC2(C)OC2C1 (stereo not drawn) [Limonene Epoxide],Te % (SEM) 2 h,,19.5 (1.2) %
same,Te % (SEM) 4 h,,42.4 (3.2) %
C=C(C)[C@H]1CC=C(C)CC1 [Limonene],Te % (SEM) 2 h,,33.6 (2.3) %
same,Te % (SEM) 4 h,,59.3 (2.9) %
CC1(C)C[C@@H]2C3=CC[C@@H]4[C@@]5(C)CC[C@H](O)[C@@](C)(C=O)C5CC[C@@]4(C)[C@]3(C)CC[C@@]2(C(=O)O)C[C@@H]1O (stereo partly drawn) [Lucyin A],Te % (SEM) 2 h,[1],7.6 (0.5) %
same,Te % (SEM) 4 h,[2],25.3 (0.7) %

# From article PMC9820279 (International Journal of Molecular Sciences, 2022)
